Test results: US20250312258A1, “2,3-PYRROLIDINEDIONE CONJUGATES AND METHODS OF USING THEREOF” (North Carolina State University, priority 2022, published 2025)
Values after ≈ are worked out from the molar mass of the structure shown. Like-named read-outs stand apart in the source and are kept apart here.

Assays:
S. aureus 25923 = test: Broth microdilution MIC, S. aureus 25923; type: cell-based, Staphylococcus aureus; conditions: Staphylococcus aureus, 25923; read-out: MIC (S. aureus 25923)
S. aureus 29213 = test: Broth microdilution MIC, S. aureus 29213; type: cell-based, Staphylococcus aureus; conditions: Staphylococcus aureus
MRSA 33591 = test: Broth microdilution MIC, MRSA 33591; type: cell-based; conditions: Staphylococcus aureus, read-out: MIC (MRSA 33591)
VRSA [1] = test: MIC against VRSA (Table 2); type: cell-based; conditions: Staphylococcus aureus, read-out: MIC (VRSA)
vanC-1 VRE 49608 = test: MIC against vanC-1 VRE 49608; type: cell-based, Enterococcus spp.; conditions: Enterococcus
VSE 2127 = test: MIC against VSE 2127; type: cell-based, Enterococcus spp.; conditions: Enterococcus; read-out: MIC (VSE 2127)
VRSA [2] = test: MIC against VRSA strain panel (VRS/NRS strains); type: cell-based; conditions: Staphylococcus aureus, read-out: MIC
VRE = test: MIC / in vitro activity against VRE strain panel; type: cell-based, Enterococcus spp.; conditions: for MIC: Enterococcus, VRE, read-out: MIC
MRSA = test: MIC against MRSA strain panel; type: cell-based; conditions: Staphylococcus aureus, the 4th table, read-out: MIC
MSSA = test: MIC against MSSA strain panel; type: cell-based; conditions: Staphylococcus aureus, the 4th table, read-out: MIC

MIC (S. aureus 25923): 0.5 µg/mL (≈ 1.31 µM) | MIC (S. aureus 29213; 29213, read-out: MIC (S. aureus 29213)): 0.5 to 1 µg/mL (≈ 1.31 to 2.61 µM) | MIC (S. aureus 29213; ATCC 29213 / MRSA, ATCC 29213 MRSA, the 4th table, read-out: MIC): 2 µg/mL (≈ 5.23 µM) | MIC (S. aureus 29213; ATCC 29213 / MRSA, ATCC 29213 MRSA, the 5th table, read-out: MIC): 1 µg/mL (≈ 2.61 µM) | MIC (MRSA 33591): 1 µg/mL (≈ 2.61 µM) | MIC (VRSA [1]): 1 µg/mL (≈ 2.61 µM) | MIC (vanC-1 VRE 49608; VRE, the 2nd table, read-out: MIC (vanC-1 VRE 49608)): 0.5 µg/mL (≈ 1.31 µM) | MIC (vanC-1 VRE 49608; vanC-1 VRE 49608, the 3rd table, read-out: MIC): 0.5 µg/mL (≈ 1.31 µM) | MIC (VSE 2127): 0.5 µg/mL (≈ 1.31 µM) | MIC (VRSA [2]; NRS 1 / VRSA, NRS-1 (VRSA), the 3rd table): 4 µg/mL (≈ 10.5 µM) | MIC (VRSA [2]; NRS 1 / VRSA, NRS-1 VRSA, the 5th table): 4 µg/mL (≈ 10.5 µM) | MIC (VRSA [2]; NRS 2 / VRSA, NRS-2 VRSA, the 5th table): 2 µg/mL (≈ 5.23 µM) | MIC (VRSA [2]; VRSA, VRS-1 (VRSA), the 3rd table): 16 µg/mL (≈ 41.8 µM) | MIC (VRSA [2]; VRSA, VRS-1 VRSA, the 5th table): 16 µg/mL (≈ 41.8 µM) | MIC (VRSA [2]; VRSA, VRS-2 (VRSA), the 3rd table): 4 µg/mL (≈ 10.5 µM) | MIC (VRSA [2]; VRSA, VRS-2 VRSA, the 5th table): 4 µg/mL (≈ 10.5 µM) | MIC (VRSA [2]; VRSA, VRS-3a VRSA, the 5th table): 4 µg/mL (≈ 10.5 µM) | MIC (VRSA [2]; VRSA, VRS-3b VRSA, the 5th table): > 64 µg/mL | MIC (VRSA [2]; VRSA, VRS-4 (VRSA), the 3rd table): 4 µg/mL (≈ 10.5 µM) | MIC (VRSA [2]; VRSA, VRS-4 VRSA, the 5th table): 8 µg/mL (≈ 20.9 µM) | MIC (VRSA [2]; VRSA, VRS-5 VRSA, the 5th table): 8 µg/mL (≈ 20.9 µM) | MIC (VRSA [2]; VRSA, VRS-6 VRSA, the 5th table): 16 µg/mL (≈ 41.8 µM) | MIC (VRSA [2]; VRSA, VRS-7 VRSA, the 5th table): 8 µg/mL (≈ 20.9 µM) | MIC (VRSA [2]; VRSA, VRS-8 VRSA, the 5th table): 16 µg/mL (≈ 41.8 µM) | MIC (VRSA [2]; VRSA, VRS-9 VRSA, the 5th table): 16 µg/mL (≈ 41.8 µM) | MIC (VRSA [2]; VRSA, VRS-10 VRSA, the 5th table): 16 µg/mL (≈ 41.8 µM) | MIC (VRSA [2]; VRSA, VRS-11a VRSA, the 5th table): 16 µg/mL (≈ 41.8 µM) | MIC (VRSA [2]; VRSA, VRS-11b VRSA, the 5th table): 16 µg/mL (≈ 41.8 µM) | MIC (VRE; 1593 (VRE), the 3rd table): 8 µg/mL (≈ 20.9 µM) | MIC (VRE; 1593 VRE, the 4th table): 8 µg/mL (≈ 20.9 µM) | MIC (VRE; 1751 (VRE), the 3rd table): 4 µg/mL (≈ 10.5 µM) | MIC (VRE; 1751 VRE, the 6th table): 4 µg/mL (≈ 10.5 µM) | MIC (VRE; 1772 VRE, the 6th table): 8 µg/mL (≈ 20.9 µM) | MIC (VRE; 1946 VRE, the 6th table): 8 µg/mL (≈ 20.9 µM) | MIC (VRE; 2059 VRE, the 6th table): 8 µg/mL (≈ 20.9 µM) | MIC (VRE; 2431 (VRE), the 3rd table): 8 µg/mL (≈ 20.9 µM) | MIC (VRE; 2431 VRE, the 6th table): 8 µg/mL (≈ 20.9 µM) | MIC (VRE; 2574 VRE, the 6th table): 8 µg/mL (≈ 20.9 µM) | MIC (VRE; 3053 VRE, the 6th table): 16 µg/mL (≈ 41.8 µM) | MIC (VRE; 3183 (VRE), the 3rd table): 4 µg/mL (≈ 10.5 µM) | MIC (VRE; 3183 VRE, the 6th table): 4 µg/mL (≈ 10.5 µM) | MIC (VRE; 3190 VRE, the 6th table): 8 µg/mL (≈ 20.9 µM) | MIC (VRE; 3191 VRE, the 6th table): 8 µg/mL (≈ 20.9 µM) | MIC (VRE; 3222 (VRE, the 3rd table)): 8 µg/mL (≈ 20.9 µM) | MIC (VRE; 3222 VRE, the 6th table): 8 µg/mL (≈ 20.9 µM) | MIC (VRE; 3235 VRE, the 6th table): 8 µg/mL (≈ 20.9 µM) | MIC (VRE; 3239 VRE, the 6th table): 8 µg/mL (≈ 20.9 µM) | MIC (VRE; 3241 VRE, the 6th table): 8 µg/mL (≈ 20.9 µM) | MIC (VRE; 3623 VRE, the 6th table): 8 µg/mL (≈ 20.9 µM) | MIC (MRSA; 6215 MRSA): 1 µg/mL (≈ 2.61 µM) | MIC (MRSA; 6217 MRSA): 1 µg/mL (≈ 2.61 µM) | MIC (MRSA; 6218 MRSA): 1 µg/mL (≈ 2.61 µM) | MIC (MRSA; 6220 MRSA): 1 µg/mL (≈ 2.61 µM) | MIC (MRSA; 6231 MRSA): 1 µg/mL (≈ 2.61 µM) | MIC (MRSA; AR-978 MRSA): 1 µg/mL (≈ 2.61 µM) | MIC (MRSA; AR-979 MRSA): 1 µg/mL (≈ 2.61 µM) | MIC (MRSA; AR-993 MRSA): 1 µg/mL (≈ 2.61 µM) | MIC (MRSA; AR-997 MRSA): 1 µg/mL (≈ 2.61 µM) | MIC (MSSA; VGP16-94 MSSA): 1 µg/mL (≈ 2.61 µM) | MIC (MSSA; VGP16-95 MSSA): 2 µg/mL (≈ 5.23 µM) | MIC (MSSA; VGP16-96 MSSA): 1 µg/mL (≈ 2.61 µM) | MIC (MSSA; VGP16-97 MSSA): 1 µg/mL (≈ 2.61 µM)
Structure (SMILES): CCC1C(c2ccc(C(F)(F)F)cc2)=C(O)C(=O)N1C1CCC(NC)CC1 (stereo not drawn) [Compound 4]
in vitro activity against vancomycin-resistant Enterococcus spp. (VRE) compared with vancomycin (VRE; FIGS. 4A-4D): superior in vitro activity
